Reference: PubChem BioAssay (NCI)
Values joined by “and” are separate entries in the source; they are usually repeats but may differ in a detail not shown here. Identical values can stand only once.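 Each compound was tested at five concentrations against cells in 96-well plates for 48 hours. GI50: concentration for 50% inhibition of growth. TGI is the concentration that stops growth completely.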

Tests used:
Experiment in all cases: NCI anticancer screen, dose series, 48 h
[1] = test system: DLD-1 colon
[2] = test system: KM20L2 colon
[3] = test system: LXFL 529 NSCLC
[4] = test system: M19-MEL melanoma
[5] = test system: SNB-78 CNS
[6] = test system: DMS 114 small cell lung
[7] = test system: BT-549 breast
[8] = test system: HS 578T breast
[9] = test system: MCF7 breast
[10] = test system: MDA-MB-231 breast
[11] = test system: MDA-MB-435
[12] = test system: PC-3 prostate
[13] = test system: T-47D breast

| Compound | TGI [1] [µM] | TGI [2] [µM] | TGI [3] [µM] | TGI [4] [µM] | TGI [5] [µM] | TGI [6] [µM] | GI50 [7] | TGI [7] | TGI [8] | TGI [9] | GI50 [10] | TGI [10] | GI50 [11] | TGI [11] | TGI [12] | GI50 [13] | TGI [13] | GI50 [8] | GI50 [9] | GI50 [12] |
| --- | --- | --- | --- | --- | --- | --- | --- | --- | --- | --- | --- | --- | --- | --- | --- | --- | --- | --- | --- | --- |
| C/C(=N\NS(=O)(=O)c1ccc(C)cc1)c1c(O)cc(C)oc1=O | > 100 | > 100 | > 100 | > 100 | > 100 | – | – | – | – | – | – | – | – | – | – | – | – | – | – | – |
| C[C@@H](NC1CCC[C@@H]1O)c1ccccc1 (stereo partly drawn) | > 100 | > 100 | > 100 | > 100 | > 100 | > 100 | – | – | – | – | – | – | – | – | – | – | – | – | – | – |
| CC(C(=O)c1ccccc1)C1(O)C(=O)Nc2ccccc21 (stereo not drawn) | > 100 | > 100 | – | > 100 | > 100 | > 100 | – | – | – | – | – | – | – | – | – | – | – | – | – | – |
| CCOC(=O)CNC1C(NC(C)=O)C(OC)OC2COC(c3ccccc3)OC21 (stereo not drawn) | – | > 100 | > 100 | > 100 | > 100 | > 100 | – | – | – | – | – | – | – | – | – | – | – | – | – | – |
| CCN(CC)CCOC(=O)/C(=C/c1ccc(OC)cc1)c1cc(OC)c(OC)c(OC)c1 | > 100 | 24.6 | 23.1 | > 100 | > 100 | 22.2 | – | – | – | – | – | – | – | – | – | – | – | – | – | – |
| COc1cc2ccc(/C(C)=N/OC(C)=O)cc2cc1OC | – | > 100 | > 100 | > 100 | > 100 | > 100 | – | – | – | – | – | – | – | – | – | – | – | – | – | – |
| Cc1[nH]c2ccccc2c1C1CC(=O)NC1=O (stereo not drawn) | > 100 | > 100 | – | > 100 | > 100 | > 100 | – | – | – | – | – | – | – | – | – | – | – | – | – | – |
| CC1OC(O[C@H]2/C=C/C=C/C=C/C=C/C=C/C=C/C=C/[C@H](C)[C@@H](O)[C@@H](C)[C@H](C)OC(=O)C[C@H](O)C[C@H](O)CC[C@@H](O)[C@H](O)C[C@H](O)C[C@]3(O)C[C@H](O)[C@@H](C(=O)O)[C@H](C2)O3)C(O)C(N)C1O (stereo partly drawn) | – | – | – | – | – | – | 20.6 µM | 68.1 µM | 27.7 µM | 56.1 µM | 32.9 µM | 48.2 µM | 7.94 µM | 19.3 µM | 31.8 µM | 52.3 µM | > 86.8 µM | – | – | – |
| CC([C@H]1CCC2C3CCC4CC5(CC[C@]4(C)C3CC[C@@]21C)c1ccccc1C(=O)N5C)N(C)C (stereo partly drawn) | > 100 | – | > 100 | 78.3 | – | > 100 | – | – | – | – | – | – | – | – | – | – | – | – | – | – |
| O=C(O[C@H]1CN[C@H](C#Cc2cc3ncnc(Nc4ccc(OCc5cccc(F)c5)c(Cl)c4)c3s2)C1)N1CCOCC1 | – | – | – | – | – | – | 4.28 µM | 8.69 µM | > 25 µM | > 25 µM | 5.09 µM | 14.5 µM | 9.85 µM | > 25 µM | > 25 µM | 1.55 µM | > 25 µM | 7.23 µM | 8.57 µM | 4.93 µM |
| NCC1OC(n2cnc3c(=O)[nH]c(N)nc32)C(O)C1O (stereo not drawn) | – | – | – | – | – | – | – | > 100 µM | > 100 µM | > 100 µM | – | > 100 µM | – | > 100 µM | > 100 µM | – | > 100 µM | – | – | – |
| O=S1c2ccccc2N=C(c2ccc(Cl)cc2)CC1c1cccs1 (stereo not drawn) | 24.9 | 59.6 | – | 39 | > 100 | 39.5 | – | – | – | – | – | – | – | – | – | – | – | – | – | – |
| COc1cc2c(Nc3ccc(Br)cc3F)ncnc2cc1OCC1CCN(C)CC1 | – | – | – | – | – | – | 7.38 µM and > 10 µM | 19.7 µM and > 10 µM | 8.6 µM and > 10 µM | 16 µM and > 10 µM | 2.19 µM and 3.62 µM | 8.29 µM and > 10 µM | 1.74 µM and 3.81 µM | 3.61 µM and > 10 µM | 18.6 µM and > 10 µM | 1.66 µM and 1.32 µM | 8.56 µM and > 10 µM | 2.26 µM and 2.48 µM | 2.52 µM and 4.67 µM | 4.06 µM and 3.9 µM |
| O=C1CC2C(=O)C1C(C(=O)O)C2C(=O)O (stereo not drawn) | – | – | – | – | – | – | – | > 100 µM | > 100 µM | > 100 µM | – | > 100 µM | – | > 100 µM | > 100 µM | – | > 100 µM | – | – | – |
| ClC1(c2ccccc2)c2ccc(Br)cc2-c2cc(Br)ccc21 | – | – | – | – | – | – | – | 37.7 µM | 50.3 µM | 36 µM | – | 30.7 µM | – | 27.4 µM | 31.3 µM | – | 58.3 µM | – | – | – |
| COc1ccc(-c2nc(N)c3ncn(C4OC(CO)C(O)C4O)c3n2)cc1 (stereo not drawn) | – | – | – | – | – | – | – | > 100 µM | > 100 µM | > 100 µM | – | > 100 µM | – | > 100 µM | > 100 µM | – | > 100 µM | – | – | – |
| CCOC(=O)/C(C#N)=C\C=C1/C=CNC2=NCCN21 | > 100 | > 100 | > 100 | > 100 | > 100 | > 100 | – | – | – | – | – | – | – | – | – | – | – | – | – | – |
| CCC(c1ccc(OC)cc1)C(CC)c1ccc(O)c(CN2CCCC2)c1 (stereo not drawn) | – | – | – | – | – | – | 3.27 µM | 11.5 µM | 23.8 µM | 6.47 µM | 2.49 µM | 6.03 µM | 2.01 µM | 4.76 µM | 14.3 µM | 2.1 µM | 6.4 µM | 5.33 µM | 2.74 µM | 3.38 µM |
